Assay [1] relates to influenza A/Udorn/72 (H3N2). The experiment in a line: microbe, parasite or virus in culture. Type of assay: cell-based. Conditions: H3N2, MDCK, read-out: EC50 for viral plaque formation.
For the next assay, the target named is Bac-NA^WT (Influenza A virus, UniProt Q6DPL2). The experiment in a line: biochemical.
In another assay the test system is A/WSN/33 (H1N1). Type of assay: cell-based, influenza A virus.
For a further assay, the target named is N2 NA (Influenza A virus, UniProt P0DOF9). Put plainly: biochemical.
Sequence of N2 NA (P0DOF9 whole entry, looked up): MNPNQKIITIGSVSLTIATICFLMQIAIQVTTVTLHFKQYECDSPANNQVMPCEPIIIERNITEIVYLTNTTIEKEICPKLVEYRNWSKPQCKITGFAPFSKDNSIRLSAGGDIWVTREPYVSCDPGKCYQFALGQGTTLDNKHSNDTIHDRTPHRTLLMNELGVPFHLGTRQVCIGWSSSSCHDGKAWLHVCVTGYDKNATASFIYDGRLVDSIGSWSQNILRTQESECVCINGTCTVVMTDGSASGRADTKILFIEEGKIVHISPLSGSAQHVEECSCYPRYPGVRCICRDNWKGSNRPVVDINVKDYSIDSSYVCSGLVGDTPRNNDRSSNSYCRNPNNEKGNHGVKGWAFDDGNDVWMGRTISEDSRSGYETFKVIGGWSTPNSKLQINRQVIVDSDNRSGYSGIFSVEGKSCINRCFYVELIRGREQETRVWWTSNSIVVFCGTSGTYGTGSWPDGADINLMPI
The subject of assay [2] is influenza A/WSN/33 (H1N1). Put plainly: microbe, parasite or virus in culture. Type of assay: cell-based. Conditions: MDCK, read-out: EC50 for viral plaque formation.
The test system of a further assay is A/WSN/33. Type of assay: cell-based, influenza A virus.
A further assay has as its system NA. Conditions: cited from earlier work.

Sequence of Bac-NA^WT (Q6DPL2 63-449 limits assumed): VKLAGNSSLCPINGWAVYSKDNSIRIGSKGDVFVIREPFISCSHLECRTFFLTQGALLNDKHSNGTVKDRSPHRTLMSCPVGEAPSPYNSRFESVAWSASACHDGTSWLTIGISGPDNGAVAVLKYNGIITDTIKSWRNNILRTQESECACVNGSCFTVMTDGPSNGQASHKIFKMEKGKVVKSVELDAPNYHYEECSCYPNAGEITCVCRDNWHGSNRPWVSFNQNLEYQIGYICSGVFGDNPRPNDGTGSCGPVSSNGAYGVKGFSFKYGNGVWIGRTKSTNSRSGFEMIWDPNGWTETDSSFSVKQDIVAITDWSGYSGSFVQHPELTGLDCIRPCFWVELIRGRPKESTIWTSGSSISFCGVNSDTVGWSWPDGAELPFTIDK

As to `Nc1c(S(=O)(=O)O)cc(Nc2cccc(S(=O)(=O)CCOS(=O)(=O)O)c2)c2c1C(=O)c1ccccc1C2=O` [RB19, Remazol Brilliant Blue R], the figures for the EC50 in assay [1] and in assay [2] were 2.8 µM and 2.7 µM, respectively. For the same molecule, the IC50 stood at 3.4 µM on Bac-NA^WT and 15.3 µM against N2 NA. Besides, the “Virus yields (fluorogenic signal of NA activity)” value with A/WSN/33 (H1N1) was “dramatically reduced virus yields”. The Influenza-induced cytopathic effect result in the assay on A/WSN/33 was “inhibits the influenza-induced cytopathic effect”.
Turning to DANA, the IC50 with NA was 10 µM.

Usually EC50 stands for the concentration giving half of the maximal effect. As a reminder, the IC50 is the concentration that inhibits the measured activity by half.

The values above are taken from publication PMC3577712 (PLoS ONE, 2013).
